Reference: patent US10759810B2 (AO “TATKHIMFARMPREPARATY”, priority 2016, dated 2020)
≈ marks a conversion by molar mass, not a printed value.

How the values were obtained:
S. aureus MRSA 1168 = test: MIC on clinical strain; format: cell-based, Staphylococcus aureus; conditions: inoculum 10^7 CFU/ml
Protocol: (§1) Measurement of antibacterial activity was carried out on the strains of Staphylococcus aureus ATCC 29213 (museum strain), Staphylococcus epidermidis (clinical isolate), Micrococcus luteus (clinical isolate), Bacillus subtilis 168 (museum strain), Escherichia coli ATCC 25922 (museum strain), Salmonella typhimurium TA100 (museum strain), Pseudomonas aeruginosa ATCC 27853 (museum strain). A comparative assessment of the spectrum of antibacterial action on reference strains and clinical isolates of gram-positive microorganisms was carried out using a micromethod for determining the minimum inhibitory concentration (MIC) using serial dilutions in Mueller-Hinton broth using 96-well sterile plates.
(§2) The first lowest concentration of the antibiotic (from a series of successive dilutions), where bacterial growth is not visually determined, is considered to be the minimum inhibitory concentration (MIC).
(§3) For the preparation of inoculum (infectious material used for artificial contamination), intended for the study of antibacterial activity, was used a pure daily culture of bacteria grown on a dense nutrient medium (agar LB medium). In a sterile isotonic solution of sodium chloride, a suspension of microorganisms was prepared, adjusting the inoculum density to 0.5 according to the McFarland standard (1.5·10^8 CFU/ml). Then, the resulting inoculum was diluted to a concentration of 10^7 CFU/ml with LB-broth. The inoculum was used for 15 minutes after preparation; the purity of the bacterial strains was monitored before each experiment.
(§4) 100 μl of Muller-Hinton broth was added to the wells of each plate; the test base was introduced into the first well at a concentration of 128 μg/ml in a volume of 100 μl and its concentration was adjusted to 0.25 μg/ml by consecutive two-fold dilution. […] Each preparation in the experiment was titrated three times. […] In addition, the purity of nutrient media and solvents was monitored. The plates were incubated in a thermostat at […] for 24 hours.
(§5) The growth of cultures was assessed visually, comparing the growth of microorganisms in the presence of test compounds with the growth of culture without them.

S. aureus MRSA 983 = test: MIC on clinical strain; format: cell-based, Staphylococcus aureus; conditions: inoculum 10^7 CFU/ml
Protocol: as §1, §2, §3, §4, §5

S. aureus MRSA 1065 = test: MIC on clinical strain; format: cell-based, Staphylococcus aureus; conditions: inoculum 10^7 CFU/ml
Protocol: as §1, §2, §3, §4, §5

S. aureus MRSA 1163 = test: MIC on clinical strain; format: cell-based, Staphylococcus aureus; conditions: inoculum 10^7 CFU/ml
Protocol: as §1, §2, §3, §4, §5

S. aureus MRSA 1143 = test: MIC on clinical strain; format: cell-based, Staphylococcus aureus; conditions: inoculum 10^7 CFU/ml
Protocol: as §1, §2, §3, §4, §5

S. aureus MRSA 1130 = test: MIC on clinical strain; format: cell-based, Staphylococcus aureus; conditions: inoculum 10^7 CFU/ml
Protocol: as §1, §2, §3, §4, §5

S. aureus MRSA 981 = test: MIC on clinical strain; format: cell-based, Staphylococcus aureus; conditions: inoculum 10^7 CFU/ml
Protocol: as §1, §2, §3, §4, §5

S. aureus MRSA 1131 = test: MIC on clinical strain; format: cell-based, Staphylococcus aureus; conditions: inoculum 10^7 CFU/ml
Protocol: as §1, §2, §3, §4, §5

S. aureus MRSA 1173 = test: MIC on clinical strain; format: cell-based, Staphylococcus aureus; conditions: inoculum 10^7 CFU/ml
Protocol: as §1, §2, §3, §4, §5

S. aureus MRSA 2020 = test: MIC on clinical strain; format: cell-based, Staphylococcus aureus; conditions: inoculum 10^7 CFU/ml
Protocol: as §1, §2, §3, §4, §5

S. aureus MRSA 1053 = test: MIC on clinical strain; format: cell-based, Staphylococcus aureus; conditions: inoculum 10^7 CFU/ml
Protocol: as §1, §2, §3, §4, §5

S. aureus MRSA 967 = test: MIC on clinical strain; format: cell-based, Staphylococcus aureus; conditions: inoculum 10^7 CFU/ml
Protocol: as §1, §2, §3, §4, §5

[1] = test system: Pseudomonas aeruginosa ATCC 27853 (museum strain); test: MIC, serial dilutions in Mueller-Hinton broth; format: cell-based; conditions: inoculum 10^7 CFU/ml, gram-negative; for MIC: Pseudomonas aeruginosa, ATCC27853, read-out: MIC, P. aerugenosa
Protocol: as §1, §2, §3, §4, §5

[2] = test system: Micrococcus luteus (clinical isolate); test: MIC, serial dilutions in Mueller-Hinton broth; format: cell-based; conditions: inoculum 10^7 CFU/ml, gram-positive; for MIC: Micrococcus luteus, read-out: MIC, M. luteus
Protocol: as §1, §2, §3, §4, §5

[3] = test system: Salmonella typhimurium TA100 (museum strain); test: MIC, serial dilutions in Mueller-Hinton broth; format: cell-based; conditions: inoculum 10^7 CFU/ml, gram-negative; for MIC: Salmonella enterica, TYPHIMURIUM, read-out: MIC, S. typhimurium
Protocol: as §1, §2, §3, §4, §5

[4] = test system: Escherichia coli ATCC 25922 (museum strain); test: MIC, serial dilutions in Mueller-Hinton broth; format: cell-based; conditions: inoculum 10^7 CFU/ml, gram-negative; for MIC: Escherichia coli, ATCC25922, read-out: MIC, E. coli
Protocol: as §1, §2, §3, §4, §5

[5] = test system: Bacillus subtilis 168 (museum strain); test: MIC, serial dilutions in Mueller-Hinton broth; format: cell-based; conditions: inoculum 10^7 CFU/ml, gram-positive; for MIC: Bacillus subtilis, read-out: MIC, B. subtilis
Protocol: as §1, §2, §3, §4, §5

[6] = test system: Staphylococcus aureus ATCC 29213 (museum strain); test: MIC, serial dilutions in Mueller-Hinton broth; format: cell-based; conditions: inoculum 10^7 CFU/ml, gram-positive; for MIC: Staphylococcus aureus, ATCC29213, read-out: MIC, S. aureus
Protocol: as §1, §2, §3, §4, §5

[7] = test system: Staphylococcus epidermidis (clinical isolate); test: MIC, serial dilutions in Mueller-Hinton broth; format: cell-based; conditions: inoculum 10^7 CFU/ml, gram-positive; for MIC: Staphylococcus epidermidis, read-out: MIC, S. epidermidis
Protocol: as §1, §2, §3, §4, §5

| MIC, P. aerugenosa [1] [µg/mL] | MIC, M. luteus [2] [µg/mL] | MIC, S. typhimurium [3] [µg/mL] | MIC, E. coli [4] [µg/mL] | MIC, B. subtilis [5] [µg/mL] | MIC, S. aureus [6] [µg/mL] | MIC, S. epidermidis [7] [µg/mL] | Structure (SMILES) | also measured |
| --- | --- | --- | --- | --- | --- | --- | --- | --- |
| – | – | – | – | – | – | – | CO/N=C(\C(=O)N[C@@H]1C(=O)N2C(C(=O)O)=C(CSc3nc(=O)c(O)nn3C)CS[C@H]12)c1csc(N)n1 [Ceftriaxon, ceftriaxone] | The value of the MIC, S. aureus MRSA 1168 (S. aureus MRSA 1168): 0.5 µg/mL; The value of the MIC, S. aureus MRSA 983 (S. aureus MRSA 983): >64 µg/mL; The value of the MIC, S. aureus MRSA 1065 (S. aureus MRSA 1065): >64 µg/mL; The value of the MIC, S. aureus MRSA 1163 (S. aureus MRSA 1163): >64 µg/mL; The value of the MIC, S. aureus MRSA 1143 (S. aureus MRSA 1143): >64 µg/mL; The value of the MIC, S. aureus MRSA 1130 (S. aureus MRSA 1130): >64 µg/mL; The value of the MIC, S. aureus MRSA 981 (S. aureus MRSA 981): >64 µg/mL; The value of the MIC, S. aureus MRSA 1131 (S. aureus MRSA 1131): >64 µg/mL; The value of the MIC, S. aureus MRSA 1173 (S. aureus MRSA 1173): >64 µg/mL; The value of the MIC, S. aureus MRSA 2020 (S. aureus MRSA 2020): 2 µg/mL; The value of the MIC, S. aureus MRSA 1053 (S. aureus MRSA 1053): >64 µg/mL; The value of the MIC, S. aureus MRSA 967 (S. aureus MRSA 967): >64 µg/mL |
| >64 | 32 (≈ 61.2 µM) | 4 (≈ 7.65 µM) | 64 (≈ 122 µM) | <2 | 32 (≈ 61.2 µM) | 16 (≈ 30.6 µM) | Cc1ncc(CN2CCN(c3cc4c(cc3F)c(=O)c(C(=O)O)cn4C3CC3)CC2)c2c1OC(C)(C)OC2 [Compound I-1, 1-cyclopropyl-6-fluoro-7-(4-((2,2,8-trimethyl-4H-[1,3]dioxino-[4,5-c]pyridine-5-yl)methyl)piperazinyl)-4-oxo-1,4-dihydroquinolin-3-carboxylic acid] | – |
| >64 | 8 (≈ 13.7 µM) | 4 (≈ 6.86 µM) | 64 (≈ 110 µM) | <2 | 16 (≈ 27.5 µM) | 32 (≈ 54.9 µM) | Cc1ncc(CSCCN2CCN(c3cc4c(cc3F)c(=O)c(C(=O)O)cn4C3CC3)CC2)c2c1OC(C)(C)OC2 [Compound I-4, 1-cyclopropyl-6-fluoro-7-(4-(2-(((2,2,8-trimethyl-4H-[1,3]dioxino-[4,5-c]pyridine-5-yl)methyl)sulfanyl)ethyl)piperazinyl)-4-oxo-1,4-dihydroquinolin-3-carboxylic acid] | – |
| 32 (≈ 59 µM) | 8 (≈ 14.7 µM) | 4 (≈ 7.37 µM) | 8 (≈ 14.7 µM) | <2 | 8 (≈ 14.7 µM) | 8 (≈ 14.7 µM) | Cc1ncc(CSCCN2CCN(c3cc4c(cc3F)c(=O)c(C(=O)O)cn4C3CC3)CC2)c(CO)c1O [Compound I-5, 1-cyclopropyl-6-fluoro-7-(4-(2-(((5-hydroxy-4-hydroxymethyl-6-methylpyridine-3-yl)methyl)sulfanyl)ethyl)piperazinyl)-4-oxo-1,4-dihydroquinolin-3-carboxylic acid] | – |
| >64 | 8 (≈ 15.7 µM) | 4 (≈ 7.87 µM) | >64 | <2 | 8 (≈ 15.7 µM) | 8 (≈ 15.7 µM) | Cc1ncc(CN2CCN(c3cc4c(cc3F)c(=O)c(C(=O)O)cn4C3CC3)CC2)c2c1OC(C)OC2 (stereo not shown) [Compound I-6, 1-cyclopropyl-6-fluoro-7-(4-((2,8-dimethyl-4H-[1,3]dioxino-[4,5-c]pyridine-5-yl)methyl)piperazinyl)-4-oxo-1,4-dihydroquinolin-3-carboxylic acid] | – |
| >64 | 8 (≈ 14.5 µM) | 4 (≈ 7.24 µM) | 64 (≈ 116 µM) | <2 | 8 (≈ 14.5 µM) | 8 (≈ 14.5 µM) | Cc1nc(CN2CCN(c3cc4c(cc3F)c(=O)c(C(=O)O)cn4C3CC3)CC2)c(CO)c2c1OC(C)(C)OC2 [Compound I-10, 1-cyclopropyl-6-fluoro-7-(4-((5-hydroxymethyl-2,2,8-trimethyl-4H-[1,3]dioxino [4,5-c]pyridine-6-yl)methyl)piperazinyl)-4-oxo-1,4-dihydroquinolin-3-carboxylic acid] | – |
| >64 | 32 (≈ 62.4 µM) | 4 (≈ 7.8 µM) | 64 (≈ 125 µM) | <2 | 64 (≈ 125 µM) | 32 (≈ 62.4 µM) | Cc1nc(CN2CCN(c3cc4c(cc3F)c(=O)c(C(=O)O)cn4C3CC3)CC2)c(CO)c(CO)c1O [Compound I-11, 1-cyclopropyl-6-fluoro-7-(4-((5-hydroxy-3,4-bis(hydroxymethyl)-6-methylpyridine-2-yl)methyl)piperazinyl)-4-oxo-1,4-dihydroquinolin-3-carboxylic acid] | – |
| – | – | – | – | – | – | – | Cc1ncc(CN2CCN(c3cc4c(cc3F)c(=O)c(C(=O)O)cn4C3CC3)CC2)c2c1OCOC2 [Compound I-12, 1-cyclopropyl-6-fluoro-7-(4-((8-methyl-4H-[1,3]dioxino [4,5-c]pyridine-5-yl)methyl)piperazine-1-yl)-4-oxo-1,4-dihydroquinolin-3-carboxylic acid] | MIC [1]: 32 µg/mL (≈ 64.7 µM); MIC [2]: 16 µg/mL (≈ 32.4 µM); MIC [3]: 0.5 µg/mL (≈ 1.01 µM); MIC [4]: 8 µg/mL (≈ 16.2 µM); MIC [5]: < 2 µg/mL; MIC [6]: 1 µg/mL (≈ 2.02 µM); MIC [7]: 0.5 µg/mL (≈ 1.01 µM) |
| – | – | – | – | – | – | – | COc1c(N2C[C@@H]3CCCN[C@@H]3C2)c(F)cc2c(=O)c(C(=O)O)cn(C3CC3)c12 [Moxifloxacin, moxifloxacin, reference compound] | MIC [1]: 8 µg/mL (≈ 19.9 µM); MIC [2]: 4 µg/mL (≈ 9.96 µM); MIC [3]: 0.5 µg/mL (≈ 1.25 µM); MIC [4]: 2 µg/mL (≈ 4.98 µM); MIC [5]: < 2 µg/mL; MIC [6]: 1 µg/mL (≈ 2.49 µM); MIC [7]: 4 µg/mL (≈ 9.96 µM) |

| Structure (SMILES) | MIC, P. aerugenosa [1] [µg/mL] | MIC, M. luteus [2] [µg/mL] | MIC, S. typhimurium [3] [µg/mL] | MIC, E. coli [4] [µg/mL] | MIC, B. subtilis [5] [µg/mL] | MIC, S. aureus [6] [µg/mL] | MIC, S. epidermidis [7] [µg/mL] | also measured |
| --- | --- | --- | --- | --- | --- | --- | --- | --- |
| CCCC1OCc2c(CN3CCN(c4cc5c(cc4F)c(=O)c(C(=O)O)cn5C4CC4)CC3)cnc(C)c2O1 (stereo not shown) [Compound I-7, 1-cyclopropyl-6-fluoro-7-(4-((8-methyl-2-propyl-4H-[1,3]dioxino-[4,5-c]pyridine-5-yl)methyl)piperazinyl)-4-oxo-1,4-dihydroquinolin-3-carboxylic acid] | >64 | 64 (≈ 119 µM) | 4 (≈ 7.45 µM) | >64 | <2 | 64 (≈ 119 µM) | 64 (≈ 119 µM) | – |
| CCCCCCCCC1OCc2c(CN3CCN(c4cc5c(cc4F)c(=O)c(C(=O)O)cn5C4CC4)CC3)cnc(C)c2O1 (stereo not shown) [Compound I-8, 1-cyclopropyl-6-fluoro-7-(4-((8-methyl-2-octyl-4H-[1,3]dioxino-[4,5-c]pyridine-5-yl)methyl)piperazinyl)-4-oxo-1,4-dihydroquinolin-3-carboxylic acid] | >64 | 64 (≈ 105 µM) | 4 (≈ 6.59 µM) | >64 | <2 | 32 (≈ 52.7 µM) | 64 (≈ 105 µM) | – |
